Experimental data reported in ChEMBL document CHEMBL5046248, “New Pqs Quorum Sensing System Inhibitor as an Antibacterial Synergist against Multidrug-Resistant Pseudomonas aeruginosa” (J Med Chem, 2022).
In brackets after ≈: the same amount, converted by molar mass. Activity calls are given as the source filed them. The rule behind the calls is not given here.

What was measured:
Pseudomonas aeruginosa [1] = assay: Antibacterial activity against Pseudomonas aeruginosa FB assessed as bacterial growth inhibition by broth microdilution method; format: functional
Pseudomonas aeruginosa [2] = assay: Antibacterial activity against Pseudomonas aeruginosa 1121 assessed as bacterial growth inhibition by broth microdilution method; format: functional
Pseudomonas aeruginosa [3] = assay: Antibacterial activity against Pseudomonas aeruginosa PAO1 assessed as bacterial growth inhibition by broth microdilution method; format: functional
Pseudomonas aeruginosa [4] = assay: Antibacterial activity against Pseudomonas aeruginosa 1129 assessed as bacterial growth inhibition by broth microdilution method; format: functional
Pseudomonas aeruginosa [5] = assay: Antibacterial activity against Pseudomonas aeruginosa 1167 assessed as bacterial growth inhibition by broth microdilution method; format: functional
Pseudomonas aeruginosa [6] = assay: Antibacterial activity against Pseudomonas aeruginosa PAO1 assessed as inhibition of biofilm formation for 24 hrs by crystal violet staining based assay; format: functional, organism-based; details: PAO1, 24 h
Pseudomonas aeruginosa [7] = assay: Synergistic antibacterial activity against multidrug-resistant Pseudomonas aeruginosa FB assessed as reduction in bacterial viability after 12 hrs in presence of colistin E; format: functional, organism-based
Pseudomonas aeruginosa [8] = assay: Antibiofilm activity against Pseudomonas aeruginosa PAO1 assessed as inhibition rate at 0.625 uM for 24 hrs by crystal violet staining based assay relative to control; format: functional
Pseudomonas aeruginosa [9] = assay: Synergistic antibacterial activity against Pseudomonas aeruginosa PAO1 assessed as reduction in bacterial viability after 12 hrs in presence of 1/2 MIC of ciprofloxacin; format: functional, organism-based
Pseudomonas aeruginosa [10] = assay: In vivo antibacterial activity against Pseudomonas aeruginosa PAO1-gfp infected in tail injured zebrafish model assessed as reduction in mortality at 10 to 20 uM measured upto 50 hrs of post fertilization; format: functional, organism-based; details: dose 10-20 µM, time hrs <=50
Pseudomonas aeruginosa [11] = assay: Synergistic antibacterial activity against Pseudomonas aeruginosa PAO1 assessed as reduction in bacterial viability after 12 hrs in presence of colistin E; format: functional, organism-based
Pseudomonas aeruginosa [12] = assay: Antibiofilm activity against Pseudomonas aeruginosa PAO1 assessed as increase in pyoverdine production at 40 uM by fluorescence assay; format: functional, organism-based
Pseudomonas aeruginosa [13] = assay: Synergistic antibacterial activity against multidrug-resistant Pseudomonas aeruginosa 1129 assessed as reduction in bacterial viability after 12 hrs in presence of 1/2 MIC of ciprofloxacin; format: functional, organism-based
Pseudomonas aeruginosa [14] = assay: In vivo antibacterial activity against Pseudomonas aeruginosa PAO1-gfp infected in tail injured zebrafish model assessed as increase in survival of zebrafish at 10 to 20 uM measured upto 50 hrs of post fertilization; format: functional, organism-based; details: dose 10-20 µM, time hrs <=50
Pseudomonas aeruginosa [15] = assay: Antibiofilm activity against Pseudomonas aeruginosa PAO1 assessed as effect on pyochelin production fluorescence at 1.25 to 20 uM by fluorescence assay; format: functional, organism-based; details: dose 1.25-20 µM
Pseudomonas aeruginosa [16] = assay: Antibiofilm activity against Pseudomonas aeruginosa PAO1 assessed as inhibition of swimming motility for 16 hrs by motility assay; format: functional, organism-based; details: dose 1.25-20 µM
Pseudomonas aeruginosa [17] = assay: Synergistic antibacterial activity against multidrug-resistant Pseudomonas aeruginosa 1167 assessed as reduction in bacterial viability after 12 hrs in presence of colistin E; format: functional, organism-based
Pseudomonas aeruginosa [18] = assay: Synergistic antibacterial activity against multidrug-resistant Pseudomonas aeruginosa FB assessed as reduction in bacterial viability after 12 hrs in presence of tobramycin; format: functional, organism-based
Pseudomonas aeruginosa [19] = assay: Antibiofilm activity against Pseudomonas aeruginosa PAO1 assessed as inhibition of swarming motility for 16 hrs by motility assay; format: functional, organism-based; details: dose 1.25-20 µM
Pseudomonas aeruginosa [20] = assay: Synergistic antibacterial activity against multidrug-resistant Pseudomonas aeruginosa 1129 assessed as reduction in bacterial viability after 12 hrs in presence of colistin E; format: functional, organism-based
Pseudomonas aeruginosa [21] = assay: Inhibition of quorum sensing system in Pseudomonas aeruginosa PAO1 assessed as reduction of pyocyanin expression in flask at 1.25 to 20 uM for 24 hrs; details: dose 1.25-20 µM
Pseudomonas aeruginosa [22] = assay: Inhibition of pyocyanin expression in Pseudomonas aeruginosa PAO1-mini-[…]-pqsA-lacZ strain assessed as decrease in beta-galactosidase at 1.25 to 20 uM; format: functional; details: PAO1-mini-ctx-pqsA-lacZ, dose 1.25-20 µM
Pseudomonas aeruginosa [23] = assay: Synergistic antibacterial activity against multidrug-resistant Pseudomonas aeruginosa 1129 assessed as reduction in bacterial viability after 12 hrs in presence of tobramycin; format: functional, organism-based
Pseudomonas aeruginosa [24] = assay: Synergistic antibacterial activity against multidrug-resistant Pseudomonas aeruginosa 1121 assessed as reduction in bacterial viability after 12 hrs in presence of colistin E; format: functional, organism-based
Pseudomonas aeruginosa [25] = assay: Synergistic antibacterial activity against multidrug-resistant Pseudomonas aeruginosa FB assessed as reduction in bacterial viability after 12 hrs in presence of 1/2 MIC of ciprofloxacin; format: functional, organism-based
Pseudomonas aeruginosa [26] = assay: Synergistic antibacterial activity against multidrug-resistant Pseudomonas aeruginosa 1167 assessed as reduction in bacterial viability after 12 hrs in presence of 1/2 MIC of ciprofloxacin; format: functional, organism-based
H9c2 [27] = assay: Cytotoxicity against rat H9c2 cells assessed as reduction in cell viability at 50 uM incubated for 24 hrs by MTT assay; format: toxicity, cell-based; details: h9c2, 24 h
H9c2 [28] = assay: Cytotoxicity against rat H9c2 cells assessed as reduction in cell viability at up to 25 uM incubated for 24 hrs by MTT assay; format: toxicity, cell-based; details: h9c2, 24 h
Pseudomonas aeruginosa [29] = assay: Antibiofilm activity against Pseudomonas aeruginosa PAO1 assessed as inhibition of twitching motility for 16 hrs by motility assay; format: functional, organism-based; details: dose 1.25-20 µM
Pseudomonas aeruginosa [30] = assay: Inhibition of elastase expression in Pseudomonas aeruginosa PAO1-mini-[…]-lasB-lacZ strain assessed as decrease in beta-galactosidase at 1.25 to 20 uM; format: functional; details: PAO1-mini-[…]-lasB-[…], dose 1.25-20 µM
Pseudomonas aeruginosa [31] = assay: Inhibition of quorum sensing system in Pseudomonas aeruginosa PAO1 assessed as decrease of pyocyanin production at 1.25 to 20 uM for 24 hrs; details: dose 1.25-20 µM
Pseudomonas aeruginosa [32] = assay: Synergistic antibacterial activity against Pseudomonas aeruginosa PAO1 assessed as reduction in bacterial viability after 12 hrs in presence of tobramycin; format: functional, organism-based
Pseudomonas aeruginosa [33] = assay: Inhibition of beta-galactosidase expression in Pseudomonas aeruginosa PAO1-mini-[…]-lacZ strain at 1.25 to 20 uM; format: functional; details: dose 1.25-20 µM
Pseudomonas aeruginosa [34] = assay: Synergistic antibacterial activity against multidrug-resistant Pseudomonas aeruginosa 1121 assessed as reduction in bacterial viability after 12 hrs in presence of 1/2 MIC of ciprofloxacin; format: functional, organism-based
Pseudomonas aeruginosa [35] = assay: Antibacterial activity against Pseudomonas aeruginosa PAO1 infected rat H9c2 cells assessed as reduction in virulence mediated cytotoxicity by measuring increase in cell viability by MTT assay; format: functional, organism-based; details: dose 1.25-20 µM
Pseudomonas aeruginosa [36] = assay: Inhibition of rhamnolipid expression in Pseudomonas aeruginosa PAO1-mini-[…]-rhlA-lacZ strain assessed as decrease in beta-galactosidase at 1.25 to 20 uM; format: functional; details: PAO1-mini-ctx-[…]-lacZ, dose 1.25-20 µM
Pseudomonas aeruginosa [37] = assay: Antibiofilm activity against Pseudomonas aeruginosa PAO1 assessed as suppression of biofilm formation for 24 hrs by fluorescent dye SYTO9 and propidium iodide staining based confocal laser microscopic analysis; format: functional, organism-based; details: dose 0.625-10 µM
Pseudomonas aeruginosa [38] = assay: In vivo antibacterial activity against Pseudomonas aeruginosa PAO1-gfp infected in tail injured zebrafish model assessed as reduction in bacterial burden at 20 uM measured after 24 hrs of post infection; format: functional, organism-based
Pseudomonas aeruginosa [39] = assay: Antibacterial activity against Pseudomonas aeruginosa PAO1 infected rat H9c2 cells assessed as reduction in virulence mediated cytotoxicity by measuring cell survival rate at 20 uM by MTT assay (reference value: 36%); format: functional
Pseudomonas aeruginosa [40] = assay: Inhibition of quorum sensing system in Pseudomonas aeruginosa PAO1 assessed as effect on rhamnolipid production at 1.25 to 20 uM for 24 hrs; details: dose 1.25-20 µM
Pseudomonas aeruginosa [41] = assay: Inhibition of quorum sensing system in Pseudomonas aeruginosa PAO1 assessed as effect on elastase production for 24 hrs; details: dose 1.25-20 µM

NC[C@H]1O[C@H](O[C@H]2[C@H](O)[C@@H](O[C@H]3O[C@H](CO)[C@@H](O)[C@H](N)[C@H]3O)[C@H](N)C[C@@H]2N)[C@H](N)C[C@@H]1O [TOBRAMYCIN]
MIC (Pseudomonas aeruginosa [1]): 10 µg/mL (≈ 21.4 µM)
MIC (Pseudomonas aeruginosa [2]): 10 µg/mL (≈ 21.4 µM)
MIC (Pseudomonas aeruginosa [3]): 5 µg/mL (≈ 10.7 µM)
MIC (Pseudomonas aeruginosa [4]): 10 µg/mL (≈ 21.4 µM)
MIC (Pseudomonas aeruginosa [5]): 10 µg/mL (≈ 21.4 µM)

CCCCn1c(C)cc(=O)c(O)c1CNS(=O)(=O)c1ccc(OC)cc1
IC50 (Pseudomonas aeruginosa [6]): 40.4 µM

CCCCn1c(C)cc(=O)c(O)c1CNC(=O)c1ccc(C(F)(F)F)cc1
IC50 (Pseudomonas aeruginosa [6]): 8.4 µM

Cn1cc(O)c(=O)cc1CNC(=O)Cc1ccc(F)cc1
IC50 (Pseudomonas aeruginosa [6]): > 100 µM

CCCCCCC(=O)NCc1cc(=O)c(O)cn1O
IC50 (Pseudomonas aeruginosa [6]): > 100 µM

CCCn1c(C)cc(=O)c(O)c1CNC(=O)Cc1ccc(F)cc1
IC50 (Pseudomonas aeruginosa [6]): > 100 µM

CCCCCC(=O)NCc1c(O)c(=O)cc(C)n1CCCC
IC50 (Pseudomonas aeruginosa [6]): 34.9 µM

COc1ccc(C(=O)NCc2cc(=O)c(O)cn2C)cc1
IC50 (Pseudomonas aeruginosa [6]): > 100 µM

CCCn1c(C)cc(=O)c(O)c1CNC(=O)c1ccc(C(F)(F)F)cc1
IC50 (Pseudomonas aeruginosa [6]): > 100 µM

CCCCCC(=O)NCc1c(O)c(=O)cc(C)n1CCC
IC50 (Pseudomonas aeruginosa [6]): > 100 µM

CCCCCCC(=O)NCc1c(O)c(=O)cc(C)n1CCC
IC50 (Pseudomonas aeruginosa [6]): > 100 µM

CCCCCC(=O)NCc1c(O)c(=O)cc(C)n1CC
IC50 (Pseudomonas aeruginosa [6]): > 100 µM

CCCn1c(C)cc(=O)c(O)c1CNC(=O)c1cccc(OC)c1
IC50 (Pseudomonas aeruginosa [6]): 56.5 µM

CCCCn1c(C)cc(=O)c(O)c1CNC1CCCC1
IC50 (Pseudomonas aeruginosa [6]): > 100 µM

CCCn1c(C)cc(=O)c(O)c1CNS(=O)(=O)c1ccc(OC)cc1
IC50 (Pseudomonas aeruginosa [6]): 59.6 µM

CCCCCCC(=O)NCc1c(O)c(=O)cc(C)n1CCCC
IC50 (Pseudomonas aeruginosa [6]): > 100 µM

CCCCn1c(C)cc(=O)c(O)c1CNC(=O)c1ccc(OC)cc1
Activity (Pseudomonas aeruginosa [7]): Dose-Dependent Effect
inhibition at 0.625 µM (Pseudomonas aeruginosa [8]): > 28%
IC50 (Pseudomonas aeruginosa [6]): 4.5 µM
Activity (Pseudomonas aeruginosa [9]): Dose-Dependent Effect
Activity (Pseudomonas aeruginosa [10]): Active
Activity (Pseudomonas aeruginosa [11]): Dose-Dependent Effect
Activity (Pseudomonas aeruginosa [12]): Active
Activity (Pseudomonas aeruginosa [13]): Dose-Dependent Effect
Activity (Pseudomonas aeruginosa [14]): Active
Activity (Pseudomonas aeruginosa [15]): inactive
Activity (Pseudomonas aeruginosa [16]): Dose-Dependent Effect
Activity (Pseudomonas aeruginosa [17]): Dose-Dependent Effect
Activity (Pseudomonas aeruginosa [18]): Dose-Dependent Effect
Activity (Pseudomonas aeruginosa [19]): Dose-Dependent Effect
Activity (Pseudomonas aeruginosa [20]): Dose-Dependent Effect
Activity (Pseudomonas aeruginosa [21]): Active
Activity (Pseudomonas aeruginosa [22]): Dose-Dependent Effect
Activity (Pseudomonas aeruginosa [23]): Dose-Dependent Effect
Activity (Pseudomonas aeruginosa [24]): Dose-Dependent Effect
Activity (Pseudomonas aeruginosa [25]): Dose-Dependent Effect
Activity (Pseudomonas aeruginosa [26]): Dose-Dependent Effect
Activity (H9c2 [27]): Toxic
Activity (H9c2 [28]): Non-Toxic
Activity (Pseudomonas aeruginosa [29]): Dose-Dependent Effect
Activity (Pseudomonas aeruginosa [30]): inactive
Activity (Pseudomonas aeruginosa [31]): Dose-Dependent Effect
Activity (Pseudomonas aeruginosa [32]): Dose-Dependent Effect
Activity (Pseudomonas aeruginosa [33]): inactive
Activity (Pseudomonas aeruginosa [34]): Dose-Dependent Effect
Activity (Pseudomonas aeruginosa [35]): Dose-Dependent Effect
Activity (Pseudomonas aeruginosa [36]): inactive
Activity (Pseudomonas aeruginosa [37]): Dose-Dependent Effect
Activity (Pseudomonas aeruginosa [38]): Active
Activity (Pseudomonas aeruginosa [39]): 79%
Activity (Pseudomonas aeruginosa [40]): inactive
Activity (Pseudomonas aeruginosa [41]): inactive

CCCCCCC(=O)NCc1cc(=O)c(O)cn1C
IC50 (Pseudomonas aeruginosa [6]): > 100 µM

CCn1c(C)cc(=O)c(O)c1CNC(=O)c1ccc(OC)cc1
IC50 (Pseudomonas aeruginosa [6]): > 100 µM

CCn1c(C)cc(=O)c(O)c1CNS(=O)(=O)c1ccc(OC)cc1
IC50 (Pseudomonas aeruginosa [6]): > 100 µM

CCCCCCC(=O)NCc1c(O)c(=O)cc(C)n1CC
IC50 (Pseudomonas aeruginosa [6]): > 100 µM

O=C(Cc1ccc(F)cc1)NCc1cc(=O)c(O)cn1O
IC50 (Pseudomonas aeruginosa [6]): > 100 µM
